Assay results from US11096930B2, “Substituted imidazopyridine compounds as inhibitors of indoleamine 2,3-dioxygenase and/or tryptophan-2,3-dioxygenase” (IOMet Pharma Ltd., priority 2016, dated 2021).

Tests used:
[1] = target: T1, TDO (Homo sapiens (Human), UniProt P48775); test: A172 (TDO) cell based assay for detection of kynurenine; conditions: A172 cells, 48 hours, read-out: pIC50 A172 (TDO) cell based assay (converted)
Experimental: (§1) Exemplary compounds disclosed herein were prepared, and tested to determine their effect as IDO and/or TDO inhibitors. Two different assays were employed: 1. a cell-based assay for detecting the effect of test compounds on kynurenine production in two different cancer cell types. This assay utilized cancer cells which expressed either TDO or IDO and as such was used as a means of testing compound activity at these two enzymes in a cell-based context. 2. a TDO and IDO biochemical coupled assay which utilized recombinantly produced and purified TDO and IDO enzymes in combination with the enzyme formamidase. This coupled enzyme system allowed conversion of N-formylkynurenine produced by TDO or IDO activity to kynurenine which was then quantified by fluorescence following addition of Erhlich's Reagent. The protocols for these are set out below.
(§2) A172 and SKOV3 Cell Based Assays for Detection of Kynurenine Produced by TDO and/or IDO
(§3) A172 (human glioblastoma) and SKOV3 (human ovarian adenocarcinoma) cells were seeded in a 96 well plate at 30,000 or 40,000 cells per well respectively in phenol red-free RPMI supplemented with 10% FCS, 2 mM L-glutamine and 500 μM L-tryptophan. IDO expression was induced in the SKOV3 cells by the addition of 500 ng/ml IFN-γ. Cells were incubated at 37° C. with or without the addition of test compound. After 48 hours, the cells were removed by centrifugation and Erhlich's reagent was added to the supernatant.

[2] = target: T1, TDO; test: hTDO biochemical coupled assay; conditions: 330 μM L-tryptophan
Experimental: as §1
(§4) TDO and IDO Biochemical Coupled Assay
(§5) Recombinant human IDO or TDO was incubated in 50 mM KPO4 (pH 7.0), 0.5 mM EGTA, 0.5 mM EDTA, 0.05% Triton™ X100, 20 mM ascorbate, 10 μM methylene blue, 500 U/ml catalase, 50 μg/ml KynB (kynurenine formamidase). […] After incubation for 17 minutes at room temperature the reactions were stopped by the addition of Erhlich's reagent and incubated at room temperature for 5 minutes before the fluorescence was read.

[3] = target: T2, IDO (Homo sapiens (Human), UniProt P14902); test: hIDO biochemical coupled assay; conditions: 45 μM L-tryptophan
Experimental: as §1, §4, §5

[4] = target: T2, IDO; test: SKOV3 (IDO) cell based assay for detection of kynurenine; conditions: SKOV3 cells, IDO induced by IFN-γ, 48 hours, read-out: pIC50 SKOV3 (IDO) cell based assay (converted)
Experimental: as §1, §2, §3

T1 sequence (P48775 whole entry): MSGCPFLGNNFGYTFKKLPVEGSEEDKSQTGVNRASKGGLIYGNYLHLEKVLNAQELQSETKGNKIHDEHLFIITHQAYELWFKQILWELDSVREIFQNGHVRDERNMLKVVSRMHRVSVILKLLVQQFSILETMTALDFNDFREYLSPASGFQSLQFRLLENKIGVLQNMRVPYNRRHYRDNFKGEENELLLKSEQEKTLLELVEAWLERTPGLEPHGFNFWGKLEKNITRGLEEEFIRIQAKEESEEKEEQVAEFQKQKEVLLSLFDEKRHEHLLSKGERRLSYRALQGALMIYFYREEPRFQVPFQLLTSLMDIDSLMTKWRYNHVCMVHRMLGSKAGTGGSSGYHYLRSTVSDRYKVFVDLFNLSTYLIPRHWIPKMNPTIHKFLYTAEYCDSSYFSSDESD
T2 sequence (P14902 whole entry): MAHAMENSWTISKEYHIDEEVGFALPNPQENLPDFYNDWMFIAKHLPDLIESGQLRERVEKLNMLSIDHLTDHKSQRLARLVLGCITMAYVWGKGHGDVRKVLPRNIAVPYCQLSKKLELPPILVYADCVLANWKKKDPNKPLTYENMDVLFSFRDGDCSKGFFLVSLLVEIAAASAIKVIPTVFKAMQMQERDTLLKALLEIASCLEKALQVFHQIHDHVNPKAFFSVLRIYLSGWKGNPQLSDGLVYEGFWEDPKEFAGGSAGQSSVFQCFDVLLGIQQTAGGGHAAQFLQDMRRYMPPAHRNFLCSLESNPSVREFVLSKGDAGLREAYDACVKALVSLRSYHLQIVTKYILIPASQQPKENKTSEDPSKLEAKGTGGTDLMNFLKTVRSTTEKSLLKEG

| Structure (SMILES) | IC50 [1] [µM] | pIC50 hTDO biochemical coupled assay [2] | pIC50 hIDO biochemical coupled assay [3] | IC50 [4] [µM] |
| --- | --- | --- | --- | --- |
| O=C1NC2(CCN(c3cc(C(F)(F)F)cc4cncn34)CC2)C(=O)N1CC1CCOCC1 [Example 7, 3-((Tetrahydro-2H-pyran-4-yl)methyl)-8-(7-(trifluoromethyl)imidazo[1,5-a]pyridin-5-yl)-1,3,8-triazaspiro[4.5]decane-2,4-dione] | 10 | 5.4 | 5.92 | 3.63 |
| CN1C(=O)NC2(CCN(c3cc(C(F)(F)F)cc4cncn34)CC2)C1=O [Example 6, 3-Methyl-8-(7-(trifluoromethyl)imidazo[1,5-a]pyridin-5-yl)-1,3,8-triazaspiro[4.5]decane-2,4-dione] | > 10 | 5.74 | 5.89 | 6.17 |
| CC1(C)CN(c2cc(Br)cc3cncn23)CCC12NC(=O)NC2=O (stereo not shown) [Example 16, 8-(7-Bromoimidazo[1,5-a]pyridin-5-yl)-6,6-dimethyl-1,3,8-triazaspiro[4.5]decane-2,4-dione] | 7.94 | 5.92 | 7.06 | 0.135 |
| CN1C(=O)NC2(CCN(c3cc(C(F)(F)F)cc4cncn34)CC2(C)C)C1=O (stereo not shown) [Example 10, 3,6,6-Trimethyl-8-(7-(trifluoromethyl)imidazo[1,5-a]pyridin-5-yl)-1,3,8-triazaspiro[4.5]decane-2,4-dione] | > 10 | 5.57 | 6.2 | 7.76 |
| CC1(C)CN(c2cc(Cl)cc3cncn23)CCC12NC(=O)NC2=O (stereo not shown) [Example 8, 8-(7-Chloroimidazo[1,5-a]pyridin-5-yl)-6,6-dimethyl-1,3,8-triazaspiro[4.5]decane-2,4-dione] | 7.94 |  |  | 0.2 |
| CC1(C)CN(c2cc(C(F)(F)F)cc3cncn23)CCC12NC(=O)N(c1ccccc1)C2=O (stereo not shown) [Example 15, 6,6-Dimethyl-3-phenyl-8-(7-(trifluoromethyl)imidazo[1,5-a]pyridin-5-yl)-1,3,8-triazaspiro[4.5]decane-2,4-dione] | > 10 | 4.42 | 5.66 | 5.62 |
| CC1(C)CN(c2cc(C(F)(F)F)cn3cncc23)CCC12NC(=O)NC2=O (stereo not shown) [Example 12, 6,6-Dimethyl-8-(6-(trifluoromethyl)imidazo[1,5-a]pyridin-8-yl)-1,3,8-triazaspiro[4.5]decane-2,4-dione] | 0.661 | 6.1 | 5.74 | 1.17 |
| O=C1NC(=O)C2(CCN(c3cc(C(F)(F)F)cn4cncc34)CC2)N1 [Example 4, 8-(6-(Trifluoromethyl)imidazo[1,5-a]pyridin-8-yl)-1,3,8-triazaspiro[4.5]decane-2,4-dione] | > 10 | 5.84 | 5.99 | 4.79 |
| O=C1NC(=O)C2(CCN(c3cc(Br)cc4cncn34)CC2)N1 [Example 2, 8-(7-Bromoimidazo[1,5-a]pyridin-5-yl)-1,3,8-triazaspiro[4.5]decane-2,4-dione] | > 10 | 6.29 | 7.19 | 0.562 |
| CC1(C)CN(c2cc(Cl)cc3cncn23)CCC12NC(=O)NC2=O (stereo not shown) [Example 11, 8-(7-Chloroimidazo[1,5-a]pyridin-5-yl)-6,6-dimethyl-1,3,8-triazaspiro[4.5]decane-2,4-dione] | 2.09 | 6.33 | 6.99 | 3.72 |
| O=C1NC(=O)C2(CCN(c3cc(C(F)(F)F)cc4cncn34)CC2)N1 [Example 1, 8-(7-(Trifluoromethyl)imidazo[1,5-a]pyridin-5-yl)-1,3,8-triazaspiro[4.5]decane-2,4-dione] | > 10 | 5.6 | 7.53 | 0.617 |
| O=C1NC(=O)C2(CCN(c3cc(Cl)cc4cncn34)CC2)N1 [Example 3, 8-(7-Chloroimidazo[1,5-a]pyridin-5-yl)-1,3,8-triazaspiro[4.5]decane-2,4-dione] | > 10 | 5.85 | 6.55 | 1.41 |
| O=C1NC2(CCN(c3cc(C(F)(F)F)cc4cncn34)CC2)C(=O)N1c1ccccc1 [Example 9, 3-Phenyl-8-(7-(trifluoromethyl)imidazo[1,5-a]pyridin-5-yl)-1,3,8-triazaspiro[4.5]decane-2,4-dione] | > 10 | 5.78 | 6.58 | 1.74 |
| CC1(C)CN(c2cc(C(F)(F)F)cc3cncn23)CCC12NC(=O)N(CC1CCOCC1)C2=O (stereo not shown) [Example 14, 6,6-dimethyl-3-((tetrahydro-2H-pyran-4-yl)methyl)-8-(7-(trifluoromethyl)imidazo[1,5-a]pyridin-5-yl)-1,3,8-triazaspiro[4.5]decane-2,4-dione] | > 10 | 4.78 | 5.92 | 4.68 |
| O=C1CC2(CCN(c3cc(C(F)(F)F)cc4cncn34)CC2)C(=O)N1 [Example 13, 8-(7-(trifluoromethyl)imidazo[1,5-a]pyridin-5-yl)-2,8-diazaspiro[4.5]decane-1,3-dione] | > 10 | 5.77 | 6.53 | 1.26 |
